Results on 6 compounds are retold here after PubChem BioAssay AID1259407 (Chemical Carcinogenesis Research Information System (CCRIS), 2018).

Molecules are shown by their SMILES. Activity calls are given as the source filed them. How the calls were made is not given here.

The test system of this data set is CCRIS mutagenicity, Ames/micronucleus/aberration tests. As to the kind of experiment: CCRIS mutagenicity studies. The source says:
The CCRIS database contains chemical records with carcinogenicity, mutagenicity, tumor promotion, and tumor inhibition test results. It was developed by the National Cancer Institute (NCI). Data are derived from studies cited in primary journals, current awareness tools, NCI reports, and other sources. Test results have been reviewed by experts in carcinogenesis and mutagenesis.
CCRIS provides historical information from the years 1985 - 2011. It is no longer updated.
This is an archive assay for CCRIS mutagenicity studies.

As to `CC1CC(C)C(=O)C1=O` (stereo unspecified), the mutagenic call was “inactive; negative” (Test System: AMES SALMONELLA TYPHIMURIUM, Strain/Indicator: TA98, Metabolic Activation: NONE, Method: PREINCUBATION); “inactive; negative” (Test System: AMES SALMONELLA TYPHIMURIUM, Strain/Indicator: TA98, Metabolic Activation: S-9, Method: PREINCUBATION); “inactive; negative” (Test System: AMES SALMONELLA TYPHIMURIUM, Strain/Indicator: TA100, Metabolic Activation: NONE, Method: PREINCUBATION); “inactive; negative” (Test System: AMES SALMONELLA TYPHIMURIUM, Strain/Indicator: TA100, Metabolic Activation: S-9, Method: PREINCUBATION); “inactive; negative” (Test System: AMES SALMONELLA TYPHIMURIUM, Strain/Indicator: TA1535, Metabolic Activation: NONE, Method: PREINCUBATION); “inactive; negative” (Test System: AMES SALMONELLA TYPHIMURIUM, Strain/Indicator: TA1535, Metabolic Activation: S-9, Method: PREINCUBATION). Also, the mutagenic call (Test System: AMES SALMONELLA TYPHIMURIUM, Strain/Indicator: TA1537, Metabolic Activation: NONE, Method: PREINCUBATION) is “inactive; negative”; the mutagenic call (Test System: AMES SALMONELLA TYPHIMURIUM, Strain/Indicator: TA1537, Metabolic Activation: S-9, Method: PREINCUBATION) was “inactive; negative”; the mutagenic call (Test System: E.COLI, Strain/Indicator: WP2 UVRA, Metabolic Activation: NONE, Method: PREINCUBATION) is “inactive; negative”; the mutagenic call (Test System: E.COLI, Strain/Indicator: WP2 UVRA, Metabolic Activation: S-9, Method: PREINCUBATION) is “inactive; negative”.

Consider `CC1=Cc2nc3c(ccc4ccccc43)c(C)c2[C@H](O)[C@H]1O`, for which the mutagenic call (Test System: AMES SALMONELLA TYPHIMURIUM, Strain/Indicator: TA100, Metabolic Activation: RAT, LIVER, S-9, AROCLOR 1254, Method: STANDARD PLATE) was “active; positive”.

In the case of `Cc1ccc(-c2nc(-c3ccc(C)cc3C)[nH]c2-c2ccc(C)cc2)cc1`, the mutagenic call (Test System: AMES SALMONELLA TYPHIMURIUM, Strain/Indicator: TA98, Metabolic Activation: NONE, Method: STANDARD PLATE) is “active; positive”; the mutagenic call (Test System: AMES SALMONELLA TYPHIMURIUM, Strain/Indicator: TA98, Metabolic Activation: RAT LIVER S-9, 3-METHYLCHOLANTHRENE, SODIUM PHENOBARBITAL, Method: STANDARD PLATE) is “active; positive”; the mutagenic call (Test System: AMES SALMONELLA TYPHIMURIUM, Strain/Indicator: TA100, Metabolic Activation: NONE, Method: STANDARD PLATE) was “active; positive”; the mutagenic call (Test System: AMES SALMONELLA TYPHIMURIUM, Strain/Indicator: TA100, Metabolic Activation: RAT LIVER S-9, 3-METHYLCHOLANTHRENE, SODIUM PHENOBARBITAL, Method: STANDARD PLATE) was “active; positive”.

Regarding `II`, the mutagenic call (End Point: IN VITRO CHROMOSOMAL ABERRATIONS, Test System: SYRIAN HAMSTER EMBRYO (SHE) CELLS, Metabolic Activation: NONE) is “active; positive (structural changes)”.

For `COCCl`, the mutagenic call is, setting by setting: (End Point: IN VITRO CHROMOSOMAL ABERRATIONS, Test System: CHL CELLS, Metabolic Activation: NONE) “active; positive (structural and ploidy changes)”; (End Point: IN VITRO CHROMOSOMAL ABERRATIONS, Test System: CHL CELLS, Metabolic Activation: RAT, LIVER, S-9, SODIUM PHENOBARBITAL AND 5,6-BENZOFLAVONE) “active; positive (structural changes)”.

Turning to `CCN(CC)CCNc1ccc2ncn3c4ccc(O)cc4c(=O)c1c23`, the mutagenic call is, setting by setting: (Test System: AMES SALMONELLA TYPHIMURIUM, Strain/Indicator: TA1537, Metabolic Activation: NONE, Method: STANDARD PLATE) “active; positive”; (Test System: AMES SALMONELLA TYPHIMURIUM, Strain/Indicator: TA1537, Metabolic Activation: S-9, Method: STANDARD PLATE) “active; positive”; (Test System: CHINESE HAMSTER V-79, Strain/Indicator: V-79 (HGPRT)/6-THIOGUANINE, Metabolic Activation: NONE) “active; positive”.
